Legend:
[1] = Photostability under UV exposure; type: physicochemical; conditions: Tableau 1; for Perte d'activité (%): UV exposure λ 300 nm, P 8.32 W/m^2, one hour
Source text: La stabilité des composés 1 à 7 aux UV a été étudiée par soumission à une exposition (λ : 300 nm, P : 8.32 W/m^2) pendant une heure.
L'Avobenzone a été utilisée comme molécule de référence. Cette molécule est connue pour être […] sous exposition UV, ce qui n'est pas du tout le cas d'autres composés bio-sourcés.
La photostabilité des composés 8 à 11 a également été étudiée, de manière identique au test appliqué aux composés 1 à 7. Les résultats obtenus sont présentés dans le Tableau 2. […] Cette méthodologie a été appliquée à l'ensemble des molécules décrites ci-dessus. Tableau 2 : Stabilité des composés 8 à 11 soumis à une exposition aux UV.

[2] = UV-Vis absorption spectrum (anti-UVA and blue light properties); type: physicochemical; set-up: λmax: unit not given here; conditions: Tableau 1
Source text: Un spectre UV-Vis a été réalisé dans l'éthanol à 10^-5 mol/L pour les composés 1 à 7, qui sont des dérivés furaniques de l'acide de Medrum. L'Avobenzone, une molécule très largement utilisée comme filtre UVA dans les crèmes solaires, a été utilisée en tant que référence.
Cette méthodologie a été employée pour évaluer les propriétés anti-UV des composés 8 à 11, qui sont des dérivés phénoliques de l'acide de Medrum, des composés 12 à 15 qui sont des dérivés pyrroliques de l'acide de Meldrum, des composés 16 à 18 qui sont des dérivés vinylphénol de l'acide de Meldrum, le composé 19 qui est un dérivé vinylfurane de l'acide de Meldrum.

[3] = target: T1, AR (récepteur des androgènes) (Homo sapiens, UniProt P10275); experiment: Endocrine system: receptor activity in presence of compound (agonist effect); type: cell-based; conditions: Figure 6, C = 10 µM; even at the highest concentrations
T1 sequence (P10275 1-920): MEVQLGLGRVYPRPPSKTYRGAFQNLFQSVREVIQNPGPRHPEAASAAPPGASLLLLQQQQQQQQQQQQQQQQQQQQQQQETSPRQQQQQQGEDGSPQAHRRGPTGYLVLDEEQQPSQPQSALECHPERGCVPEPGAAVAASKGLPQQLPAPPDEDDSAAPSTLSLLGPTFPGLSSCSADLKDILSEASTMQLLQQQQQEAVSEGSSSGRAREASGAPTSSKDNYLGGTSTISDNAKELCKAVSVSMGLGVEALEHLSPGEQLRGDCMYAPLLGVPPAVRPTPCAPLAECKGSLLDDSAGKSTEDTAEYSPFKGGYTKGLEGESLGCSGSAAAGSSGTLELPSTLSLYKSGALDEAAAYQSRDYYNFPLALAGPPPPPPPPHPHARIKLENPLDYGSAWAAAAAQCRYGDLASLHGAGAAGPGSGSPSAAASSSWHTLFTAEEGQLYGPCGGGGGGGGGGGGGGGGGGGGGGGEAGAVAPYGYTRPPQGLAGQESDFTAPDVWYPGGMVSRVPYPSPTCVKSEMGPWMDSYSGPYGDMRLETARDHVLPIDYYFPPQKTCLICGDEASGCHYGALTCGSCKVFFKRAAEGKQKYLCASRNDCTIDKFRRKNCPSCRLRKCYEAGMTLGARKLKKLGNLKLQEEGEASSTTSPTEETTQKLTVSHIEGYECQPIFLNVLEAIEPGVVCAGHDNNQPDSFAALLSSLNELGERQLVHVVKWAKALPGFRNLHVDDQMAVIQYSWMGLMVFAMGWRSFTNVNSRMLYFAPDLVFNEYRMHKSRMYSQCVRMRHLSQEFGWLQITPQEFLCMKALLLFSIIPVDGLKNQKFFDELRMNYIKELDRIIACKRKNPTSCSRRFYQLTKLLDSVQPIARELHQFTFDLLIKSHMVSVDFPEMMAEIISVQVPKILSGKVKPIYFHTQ
Source text: (§1) L'effet des composés 1 et 4 sur le système endocrinien a été évalué pour leurs propriétés agonistes et antagonistes sur différents récepteurs : ERα (récepteur œstrogène alpha), AR (récepteur des androgènes) et PXR (pregnane X receptor). Un premier test consiste à étudier l'activité des récepteurs en présence du composé 1 ou 4 (effet agoniste). […] Un second test vise à l'étude de l'activité des récepteurs en présence du composé 1 ou 4 et d'une molécule de référence pour chaque récepteur (effet antagoniste).

[4] = target: T2, PXR (pregnane X receptor) (Homo sapiens, UniProt O75469); experiment: as above; type: cell-based; conditions: Figure 6, C = 10 µM; even at the highest concentrations
T2 sequence (O75469 1-434): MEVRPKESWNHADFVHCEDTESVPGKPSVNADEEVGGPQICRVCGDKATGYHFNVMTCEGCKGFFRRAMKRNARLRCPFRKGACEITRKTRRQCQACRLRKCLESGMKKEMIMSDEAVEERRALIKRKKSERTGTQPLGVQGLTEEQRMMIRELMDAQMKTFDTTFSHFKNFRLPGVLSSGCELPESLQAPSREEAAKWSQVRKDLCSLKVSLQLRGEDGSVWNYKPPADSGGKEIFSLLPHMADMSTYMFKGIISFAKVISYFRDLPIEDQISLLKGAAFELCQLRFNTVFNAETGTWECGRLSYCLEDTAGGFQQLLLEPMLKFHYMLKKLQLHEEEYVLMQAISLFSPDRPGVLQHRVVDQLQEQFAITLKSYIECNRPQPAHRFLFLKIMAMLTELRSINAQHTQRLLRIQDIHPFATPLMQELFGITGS
Source text: as §1

[5] = target: T3, ERα (récepteur œstrogène alpha) (Homo sapiens, UniProt P03372); experiment: as above; type: cell-based; conditions: Figure 6, C = 10 µM; even at the highest concentrations
T3 sequence (P03372 1-595): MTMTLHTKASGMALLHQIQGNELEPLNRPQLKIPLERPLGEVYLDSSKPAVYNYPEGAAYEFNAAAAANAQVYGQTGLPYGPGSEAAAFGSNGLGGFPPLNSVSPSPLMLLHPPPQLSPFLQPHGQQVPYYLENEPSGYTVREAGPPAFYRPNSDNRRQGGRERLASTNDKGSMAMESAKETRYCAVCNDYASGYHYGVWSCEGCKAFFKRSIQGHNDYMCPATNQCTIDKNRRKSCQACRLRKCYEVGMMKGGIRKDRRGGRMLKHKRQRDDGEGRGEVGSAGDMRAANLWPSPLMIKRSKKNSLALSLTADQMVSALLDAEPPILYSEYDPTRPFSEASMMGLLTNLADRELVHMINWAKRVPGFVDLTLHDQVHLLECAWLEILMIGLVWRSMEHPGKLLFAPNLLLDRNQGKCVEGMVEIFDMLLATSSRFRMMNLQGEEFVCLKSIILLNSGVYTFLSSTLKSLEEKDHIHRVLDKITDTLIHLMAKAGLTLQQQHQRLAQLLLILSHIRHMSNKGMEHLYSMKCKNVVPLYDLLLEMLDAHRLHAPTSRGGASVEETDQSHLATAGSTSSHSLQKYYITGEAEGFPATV
Source text: as §1

[6] = target: T1, AR (récepteur des androgènes); experiment: Endocrine system: receptor activity in presence of compound and reference molecule (antagonist effect); type: cell-based; conditions: Figure 8; with reference molecule; even at the highest concentrations
Source text: as §1

[7] = target: T2, PXR (pregnane X receptor); experiment: as above; type: cell-based; conditions: Figure 9; with reference molecule; even at the highest concentrations
Source text: as §1

[8] = target: T3, ERα (récepteur œstrogène alpha); experiment: as above; type: cell-based; conditions: Figure 7; with reference molecule; even at the highest concentrations
Source text: as §1

Perte d'activité (%) [1]: < 5% | Perte d'activité (%) ([1]; listed as Composé (4)): 3,4% | A (t=0 min) ([1]; absorbance before UV exposure): 0,28814 | λmax [2]: 374
Compound: CC1(C)OC(=O)C(=Cc2ccc(CO)o2)C(=O)O1 [compound 4, 5-[[5-(Hydroxymethyl)-2-furanyl]methylene]-2,2-dimethyl-1,3-dioxane-4,6-dione]
effet agoniste (activité du récepteur AR) [3]: n'induisent pas une activité anormale des récepteurs | effet agoniste (activité du récepteur PXR) [4]: n'induisent pas une activité anormale des récepteurs | effet agoniste (activité du récepteur ERα) [5]: n'induisent pas une activité anormale des récepteurs | effet antagoniste sur le récepteur AR [6]: n'empêchent pas l'activité des récepteurs envers les molécules de référence | effet antagoniste sur le récepteur PXR [7]: n'empêchent pas l'activité des récepteurs envers les molécules de référence | effet antagoniste sur le récepteur ERα [8]: n'empêchent pas l'activité des récepteurs envers les molécules de référence
